Values quoted from earlier work as cited in patent publication EP4088834A1, “INORGANIC COATED SAND” (Kao Corporation, priority 2020, dated 2021).

Conditions: 25°C

Compound: [O]=[Ca] [calcium oxide]
- solubility in water: 1190 µg/mL
